Like-named read-outs stand apart in the source and are kept apart here.
Columns and labels:
sarcoma 37 = assay: Antitumor activity, life prolongation, sarcoma 37; format: in vivo, mice
Protocol: (§1) Apart from the tests on Ehrlich ascitic tumor, giniquine was studied on twelve more inoculated tumors. Seven tumors (melanoma B16, sarcoma AK, large intestine carcinoma acatol-1, sarcoma 180, adenocarcinoma 755, Lewis lung carcinoma and sarcoma 37) were inoculated subcutaneously with 50 mg of tumoral cells per mouse. Four tumors (lymphatic leukemies L 5178, L 5178Y, L 1210 and P-388) were inoculated intraperitoneally with 10^6 cells per mouse. One tumor (La, hemocytoblastosis) was inoculated intraperitoneally by injecting 50 mg of cell suspension of spleen and liver of mice suffering La hemocytoblastosis, per mouse. Giniquine was injected intraperitoneally five times for seven days: 1,2,3,4,7 days or 3,4,5,6,7 days after the implantation of tumor. The rate of deceleration of the tumor growth was established 14 days after the ultimate injection of giniquine; life of test animals was recorded for 60 days.

La hemocytoblastosis = assay: Antitumor activity, La hemocytoblastosis; format: in vivo, mice
Protocol: as §1

Liver = assay: In vivo biosynthesis of DNA, RNA and protein in liver; parameters: species or system mice; conditions: for Incorporation of 2-^14 C-leucine in protein / Incorporation of 2-^14 C-thymidine in DNA: intraperitoneal 100 mg/kg; for inhibition at 100 mg/kg: Mus musculus, three hours
Protocol: (§2) The influence of giniquine on biosynthetic processes in the in vivo tests was studied on common white mice of a mass of 25-35 g with Ehrlich ascitic tumor.
(§3) The mice were divided into two groups. The animals in the first group were given a single injection of the preparation in differing doses, and the animals in the second group were treated with distilled water. Three series of experiments were conducted. In the first series of tests (16 mice) the preparation was injected in a dose of 100 mg/kg ([…] dose), and the animals were decapitated one hour after the injection; in the second test series (16 mice) the animals were slaughtered 3 hours after the injection with other conditions being the same. In the third test series (35 mice) the influence of giniquine on plastic metabolism in tumor cells and normal tissues was studied 24 hours after the injection of a 0.33% solution of the preparation in a dose of 28 mg/kg (therapeutical dose).
(§4) Labeled precursors of nucleic acids and protein were injected intraperitoneally one hour before the slaughter of the animals (50 μc/100 g). Ascitic fluid, as well as liver and spleen, mucous membrane of small intestine, brain, kidneys and lungs were taken for analysis. 10% suspension was prepared from tumor cells, and 10% homogenates were prepared from tissues in a physiological solution.
(§5) Tumor cells and tissue homogenates for precipitation of nucleic acids were treated with 57% perchloric acid (10:1). Acid-soluble fraction was removed by washing the precipitate twice with 5 ml of 5% perchloic acid with subsequent centrifuging at 2000 g. Nucleic acids were hydrolyzed by the Schneider method. Radioactivity of DNA and RNA fractions was measured by means of a liquid scintillation counter. The quantity of DNA and RNA was determined by spectrophotometry: the quantity of DNA was determined with diphenylamine, and RNA- with orcin.
(§6) To prepare protein hydrolysate, the suspension of tumoral cells and homogenates of normal tissues were treated with cool 10% trichloracetic acid (1:4), with subsequent centrifuging at 2000 g for ten minutes. The precipitate was washed twice with 5 ml of 10% trichloracetic acid. Lipoids were removed by a consecutive treatment of the precipitate with ethanol, saturated solution of sodium acetate, a mixture of ethanol and ether (3:1) and ether. To prepare protein hyhdrolysate, 4 ml of 0.3N KOH were added to the precipitate, and the mixture was placed into a thermostatic chamber at 37° C. for 60 minutes. The radioactivity was measured by means of a liquid scintillation counter. Protein was quantitatively determined by spectrophotometry using a microbiuret reaction.

[1] = LD50 / toxicity, mice with 7-days Ehrlich ascitic tumor; format: in vivo; conditions: for LD50: mouse, in vivo
tumor cells = assay: Antiblastic activity and selectivity of action on tumor cells (general statement)
melanoma B16 = assay: Antitumor activity, melanoma B16; format: in vivo, mice
Protocol: as §1, with “Giniquine was injected intraperitoneally five times for seven days: 1,2,3,4,7 days or 3,4,5,6,7 days after the implantation of tumor.” left out

[2] = tested on: Tumor cells (Ehrlich ascitic tumor); assay: In vivo biosynthesis of DNA, RNA and protein in tumor cells; parameters: species or system mice; conditions: for Incorporation of 2-^14 C-leucine in protein / Incorporation of 2-^14 C-thymidine in DNA: intraperitoneal 100 mg/kg; for inhibition at 100 mg/kg: Mus musculus, Ehrlich
Protocol: as §2, §3, §4, §5, §6

[3] = tested on: normal tissues (mucous membrane of small intestine, liver, spleen, brain, kidneys, lungs); assay: In vivo biosynthesis of macromolecules in normal tissues; parameters: species or system mice; conditions: 24 hours, 28 mg/kg
Protocol: as §2
The mice were divided into two groups. The animals in the first group were given a single injection of the preparation in differing doses, and the animals in the second group were treated with distilled water. Three series of experiments were conducted. […]
(§7) Tumor cells and tissue homogenates for precipitation of nucleic acids were treated with 57% perchloric acid (10:1). […] Radioactivity of DNA and RNA fractions was measured by means of a liquid scintillation counter. The quantity of DNA and RNA was determined by spectrophotometry: the quantity of DNA was determined with diphenylamine, and RNA- with orcin.
(§8) To prepare protein hydrolysate, the suspension of tumoral cells and homogenates of normal tissues were treated with cool 10% trichloracetic acid (1:4), with subsequent centrifuging at 2000 g for ten minutes. […] The radioactivity was measured by means of a liquid scintillation counter. Protein was quantitatively determined by spectrophotometry using a microbiuret reaction.

Ehrlich ascitic tumor = assay: Antitumor activity, life prolongation of mice with Ehrlich ascitic tumor; format: in vivo
Protocol: The experiment was conducted as follows. 10^6 cells of Erlich tumuor were injected in common white mice intraperitoneally, the dose being given per each animal. […] Each dose of the preparation was tested in six mice. The control group included 18 mice. Giniquine solution was prepared by dissolving the substance ex tempore in distilled water or in a buffer. The effect of the preparation is shown on charts 1,2,3.

Kidneys = assay: In vivo biosynthesis of DNA, RNA and protein in kidneys; parameters: species or system mice; conditions: 24 hours, intraperitoneal 28 mg/kg
Protocol: as §2, §3, §4, §7, §8

[4] = 24 hours, intraperitoneal 28 mg/kg
[5] = BDF1 male mice, intraperitoneal, days 1,2,5,6,7, optim. daily dose 17.0 mg/kg

CCN(CC)CCCC(C)NC(=O)c1cc(C=Cc2ccc([N+](=O)[O-])o2)nc2ccccc12 (stereo not drawn) [giniquine, 2-[2'-(5"-nitrofuryl-2")vinyl]quinoline-4-carboxylic acid (α-methyl-δ-diethylaminobutyl)amide triphosphate]
Max. life prolong. (sarcoma 37; common female mice, intraperitoneal, days 1,2,3,4,7, daily doses 6.0-28.0 mg/kg, optimum daily dose 0): 0% | antiblastic activity / sensitivity (in words) (sarcoma 37; sarcoma 37): practically insensitive | Max. life prolong. (La hemocytoblastosis; C57 BL/6Y female mice, intraperitoneal, days 1,2,3,4,7, optimum daily dose 10.0 mg/kg): 5% | antitumor effect / sensitivity (in words) (La hemocytoblastosis; La hemocytoblastosis): practically insensitive | Incorporation of 2-^14 C-leucine in protein (Liver; 1 h): 127.0 % of control | Incorporation of 2-^14 C-thymidine in DNA (Liver; 1 h): 106.0 % of control | Incorporation of 2-^14 C-leucine in protein (Liver; 3 h): 96.0 % of control | Incorporation of 2-^14 C-thymidine in DNA (Liver; 3 h): 93.0 % of control | Incorporation of specific precursors, DNA (Liver; [4]): 190.0 % of control | Incorporation of specific precursors, Protein (Liver; [4]): 112.0 % of control | Incorporation of specific precursors, RNA (Liver; [4]): 124.0 % of control | inhibition at 100 mg/kg (Liver; 3 h, 100 mg/kg, read-out: inhibition of biosynthesis of DNA): 7% | inhibition at 100 mg/kg (Liver; 3 h, 100 mg/kg, read-out: inhibition of biosynthesis of protein): 4% | inhibition of biosynthesis of protein (in words) (Liver; one hour, 100 mg/kg): not observed or inappreciable | stimulation of biosynthesis of DNA (Liver; one hour, 100 mg/kg): 6% | toxicity compared to intraperitoneal injection ([1]; intravenous injection): five times greater | LD50 ([1]; ip, intraperitoneal, ten injections, female): 10 mg/kg | LD50 ([1]; ip, intraperitoneal, ten injections, male): 7 mg/kg | LD50 ([1]; iv, single injection, female): 17.5 mg/kg | LD50 ([1]; iv, single injection, male): 20 mg/kg | antiblastic / antitumoral activity (tumor cells): highly active antitumoral preparation | selective (contact) action on tumor cells (tumor cells): selective action on tumor cells | Deceleration of tumor growth (melanoma B16; [5]): 48% | Max. prolongation of life (melanoma B16; [5]): 10% | antitumor effect (in words) (melanoma B16; melanoma B16): slight antitumor effect | Incorporation of 2-^14 C-leucine in protein ([2]; 1 h): 59.0 % of control | Incorporation of 2-^14 C-thymidine in DNA ([2]; 1 h): 43.0 % of control | Incorporation of 2-^14 C-leucine in protein ([2]; 3 h): 14.0 % of control | Incorporation of 2-^14 C-thymidine in DNA ([2]; 3 h): 30.0 % of control | suppression of incorporation of 2-^14 C-thymidine in DNA ([2]; 24 hours, 28 mg/kg): 82% | suppression of incorporation of 2-^14 C-uridine in RNA ([2]; 24 hours, 28 mg/kg): 42% | Incorporation of specific precursors, DNA [2, 4]: 18.0 % of control | Incorporation of specific precursors, Protein [2, 4]: 54.0 % of control | Incorporation of specific precursors, RNA [2, 4]: 58.0 % of control | inhibition at 100 mg/kg ([2]; 1 h, one hour, 100 mg/kg, read-out: inhibition of biosynthesis of DNA): 57% | inhibition at 100 mg/kg ([2]; 3 h, three hours, 100 mg/kg, read-out: inhibition of biosynthesis of DNA): 70% | inhibition at 100 mg/kg ([2]; 3 h, three hours, 100 mg/kg, read-out: inhibition of biosynthesis of protein): 86% | biosynthesis processes in tumor cells (in words) ([2]; in vivo): the same effect on biosynthesis processes in tumor cells | suppression of biosynthesis of protein ([2]; one hour, 100 mg/kg): 41% | biosynthesis processes in normal tissues (in words) [3]: a stimulation of biosynthesis processes | dependence of antitumoral effect on solution concentration (Ehrlich ascitic tumor; 0.1 to 0.35% solution): did not change within this range of concentrations | prolongation of life (Ehrlich ascitic tumor; Chart 1, intraperitoneal injection): 100% | prolongation of life (Ehrlich ascitic tumor; Chart 1, intravenous injection): 25% | antitumor effect, single versus five injections (Ehrlich ascitic tumor; Chart 2, single intraperitoneal injection on first day vs five injections at 1,2,3,4,7 days): the same | prolongation of life (Ehrlich ascitic tumor; Chart 3, intraperitoneal injection on 7th day): 100% | prolongation of life (Ehrlich ascitic tumor; Chart 3, intraperitoneal injection on 14th day): 55% | prolongation of life (Ehrlich ascitic tumor; Chart 3, intraperitoneal injection on first day after implantation): 90% | prolongation of life (Ehrlich ascitic tumor; Chart 3, intraperitoneal injection on third day): 80% | Incorporation of specific precursors, DNA (Kidneys): 178.0 % of control | Incorporation of specific precursors, Protein (Kidneys): 105.0 % of control | Incorporation of specific precursors, RNA (Kidneys): 148.0 % of control
